Results taken from US20220305019A1, “PARAXANTHINE-BASED COMPOSITIONS FOR PROMOTING WEIGHT LOSS” (Ingenious Ingredients, LP, priority 2021, published 2022).

Legend:
Type in all cases: in vivo, human
[1] = Appetite visual analog scale (VAS) after oral ingestion, crossover, two participants; set-up: Appetite Visual Analog Scale / Appetite Visual Analog Scale MEAN: scale not given here; details: for Appetite Visual Analog Scale MEAN: mean 30-180 min
Method: All supplements were orally ingested with 8 fluid ounces of cold tap water. The order of administration for all interventions was randomized using a random allocation software to ensure randomization and to avoid order effects. […] All study visits took place between 0600-1000 hours. At least 72 hours of rest will take place between each condition.

[2] = Respiratory quotient (RQ=VCO2/VO2) after oral ingestion, crossover, two participants; details: 100 mg PX
Method: (§1) Upon determination of baseline respiratory quotient (RQ=VCO2/VO2) two participants were assigned in a randomized, double-blind, placebo-controlled, crossover fashion to ingest a non-energetic placebo (maltodextrin) or a 100 mg paraxanthine (PX). All supplements were orally ingested with 8 fluid ounces of cold tap water. The order of administration for all interventions was randomized using a random allocation software to ensure randomization and to avoid order effects. After ingestion, participants completed all assessments in an identical fashion 30, 60, 90, 120, and 180 minutes after ingestion of their assigned supplement. All study visits took place between 0600-1000 hours. At least 72 hours of rest took place between each condition.
The lower the RQ, the more fat that is being oxidized for body energy needs. The closer to 1.0 the more carbohydrate is being burned for energy needs. If numbers are lower, more fat is being oxidized. PX reduced the respiratory quotient by more than 10% compared to placebo, increasing fat oxidation (“fat burning”).

[3] = Resting energy expenditure after oral ingestion of PX, crossover, two participants
Method: as §1, with “resting energy expenditure,” for “respiratory quotient (RQ=VCO2/VO2)”, “(maltodextrin),” for “(maltodextrin) or a”, “(PX), 200 mg PX or 300 mg PX.” for “(PX).”

[4] = Swagger visual analog scale (VAS) after oral ingestion, crossover, two participants; set-up: Swagger (Visual Analog Scale) / Swagger VAS MEAN: scale not given here; details: 100 mg PX
Method: as §1, with “All” for “Upon determination of baseline respiratory quotient (RQ=VCO2/VO2) two participants were assigned in a randomized, double-blind, placebo-controlled, crossover fashion to ingest a non-energetic placebo (maltodextrin) or a 100 mg paraxanthine (PX). All”

[5] = Self-reported swagger after consuming paraxanthine (individual reports); details: person

For Cn1c(=O)[nH]c2ncn(C)c2c1=O [PX, paraxanthine], the “reduction of mean appetite compared to placebo” value ([1]; 100 mg PX) was 38.5%, the “appetite reduction compared to CA” value ([1]; 100 mg PX and 300 mg PX vs 200 mg CA) was “greater reduction in appetite compared to CA” and the “Appetite Visual Analog Scale” value ([1]; 100 mg PX, 30 min, person one) was 29. The “Appetite Visual Analog Scale” value ([1]; 100 mg PX, 30 min, person two) was 70, the “Appetite Visual Analog Scale” value ([1]; 100 mg PX, 60 min, person one) was 27 and the “Appetite Visual Analog Scale” value ([1]; 100 mg PX, 60 min, person two) was 65. For the same molecule, the “Appetite Visual Analog Scale” value ([1]; 100 mg PX, 90 min, person one) was 25, the “Appetite Visual Analog Scale” value ([1]; 100 mg PX, 90 min, person two) was 60 and the “Appetite Visual Analog Scale” value ([1]; 100 mg PX, 120 min, person one) was 29. For the same molecule, the “Appetite Visual Analog Scale” value ([1]; 100 mg PX, 120 min, person two) was 85, the “Appetite Visual Analog Scale” value ([1]; 100 mg PX, 180 min, person one) was 35 and the “Appetite Visual Analog Scale” value ([1]; 100 mg PX, 180 min, person two) was 90. For the same molecule, the “Appetite Visual Analog Scale MEAN” value ([1]; 100 mg PX, Average of both) was 51.5, the “Appetite Visual Analog Scale MEAN” value ([1]; 100 mg PX, person one) was 29.0 and the “Appetite Visual Analog Scale MEAN” value ([1]; 100 mg PX, person two) was 74.0. The “Appetite VAS mean Δ vs. PLA” value ([1]; 100 mg PX, person one) was −65.2, the “Appetite VAS mean Δ vs. PLA” value ([1]; 100 mg PX, person two) was “+0.8” and the “reduction of mean appetite compared to placebo” value ([1]; 300 mg PX) was 43.1%. The “Appetite Visual Analog Scale” value ([1]; 300 mg PX, 30 min, person one) was 24, the “Appetite Visual Analog Scale” value ([1]; 300 mg PX, 30 min, person two) was 65 and the “Appetite Visual Analog Scale” value ([1]; 300 mg PX, 60 min, person one) was 30. For the same molecule, the “Appetite Visual Analog Scale” value ([1]; 300 mg PX, 60 min, person two) was 60, the “Appetite Visual Analog Scale” value ([1]; 300 mg PX, 90 min, person one) was 29 and the “Appetite Visual Analog Scale” value ([1]; 300 mg PX, 90 min, person two) was 55. For the same molecule, the “Appetite Visual Analog Scale” value ([1]; 300 mg PX, 120 min, person one) was 27, the “Appetite Visual Analog Scale” value ([1]; 300 mg PX, 120 min, person two) was 60 and the “Appetite Visual Analog Scale” value ([1]; 300 mg PX, 180 min, person one) was 26. The “Appetite Visual Analog Scale” value ([1]; 300 mg PX, 180 min, person two) was 80, the “Appetite Visual Analog Scale MEAN” value ([1]; 300 mg PX, Average of both) was 45.6 and the “Appetite Visual Analog Scale MEAN” value ([1]; 300 mg PX, person one) was 27.2. The “Appetite Visual Analog Scale MEAN” value ([1]; 300 mg PX, person two) was 64.0, the “Appetite VAS mean Δ vs. 100 mg PX” value ([1]; 300 mg PX, person one) was −1.8 and the “Appetite VAS mean Δ vs. PLA” value ([1]; 300 mg PX, person one) was −67.0. For the same molecule, the “Appetite VAS mean Δ vs. 100 mg PX” value ([1]; 300 mg PX, person two) was −10.0, the “Appetite VAS mean Δ vs. PLA” value ([1]; 300 mg PX, person two) was −9.2 and the “reduction of respiratory quotient compared to placebo” value [2] was “more than 10%”. The “Respiratory Quotient” value ([2]; 30 min, person one) was 0.68, the “Respiratory Quotient” value ([2]; 30 min, person two) was 0.81 and the “Respiratory Quotient” value ([2]; 60 min, person one) was 0.66. The “Respiratory Quotient” value ([2]; 60 min, person two) was 0.74, the “Respiratory Quotient” value ([2]; 90 min, person one) was 0.72 and the “Respiratory Quotient” value ([2]; 90 min, person two) was 0.74. The “Respiratory Quotient” value ([2]; 120 min, person one) was 0.70, the “Respiratory Quotient” value ([2]; 120 min, person two) was 0.69 and the “Respiratory Quotient” value ([2]; 180 min, person one) was 0.77. The “Respiratory Quotient” value ([2]; 180 min, person two) was 0.70, the “Respiratory Quotient MEAN” value ([2]; Average of both) was 0.725 and the “Respiratory Quotient MEAN” value ([2]; person one) was 0.71. For the same molecule, the “Respiratory Quotient MEAN Δ from 0” value ([2]; person one) was −0.014, the “Respiratory Quotient MEAN” value ([2]; person two) was 0.74 and the “Respiratory Quotient MEAN Δ from 0” value ([2]; person two) was −0.004. For the same molecule, the “Respiratory Quotient” value ([2]; time 0 (baseline), person one) was 0.72, the “Respiratory Quotient” value ([2]; time 0 (baseline), person two) was 0.74 and the “Resting Energy Expenditure” value ([3]; 100 mg PX, 30 min, person one) was 1,943 kcal/day. The “Resting Energy Expenditure” value ([3]; 100 mg PX, 30 min, person two) was 1,690 kcal/day, the “Resting Energy Expenditure” value ([3]; 100 mg PX, 60 min, person one) was 1,862 kcal/day and the “Resting Energy Expenditure” value ([3]; 100 mg PX, 60 min, person two) was 1,809 kcal/day. The “Resting Energy Expenditure” value ([3]; 100 mg PX, 90 min, person one) was 1,921 kcal/day, the “Resting Energy Expenditure” value ([3]; 100 mg PX, 90 min, person two) was 1,899 kcal/day and the “Resting Energy Expenditure” value ([3]; 100 mg PX, 120 min, person one) was 1,990 kcal/day. The “Resting Energy Expenditure” value ([3]; 100 mg PX, 120 min, person two) was 1,787 kcal/day, the “Resting Energy Expenditure” value ([3]; 100 mg PX, 180 min, person one) was 2,129 kcal/day and the “Resting Energy Expenditure” value ([3]; 100 mg PX, 180 min, person two) was 1,796 kcal/day. The “Resting Energy Expenditure MEAN” value ([3]; 100 mg PX, Average of both) was 1,883 kcal/day, the “Resting Energy Expenditure MEAN” value ([3]; 100 mg PX, person one) was 1,969 kcal/day and the “Resting Energy Expenditure MEAN” value ([3]; 100 mg PX, person two) was 1,796 kcal/day. For the same molecule, the “Resting Energy Expenditure” value ([3]; 200 mg PX, 30 min, person one) was 2,007 kcal/day, the “Resting Energy Expenditure” value ([3]; 200 mg PX, 30 min, person two) was 1,703 kcal/day and the “Resting Energy Expenditure” value ([3]; 200 mg PX, 60 min, person one) was 1,702 kcal/day. The “Resting Energy Expenditure” value ([3]; 200 mg PX, 60 min, person two) was 1,782 kcal/day, the “Resting Energy Expenditure” value ([3]; 200 mg PX, 90 min, person one) was 2,048 kcal/day and the “Resting Energy Expenditure” value ([3]; 200 mg PX, 90 min, person two) was 1,864 kcal/day. For the same molecule, the “Resting Energy Expenditure” value ([3]; 200 mg PX, 120 min, person one) was 2,221 kcal/day, the “Resting Energy Expenditure” value ([3]; 200 mg PX, 120 min, person two) was 1,872 kcal/day and the “Resting Energy Expenditure” value ([3]; 200 mg PX, 180 min, person one) was 2,067 kcal/day. The “Resting Energy Expenditure” value ([3]; 200 mg PX, 180 min, person two) was 1,853 kcal/day, the “Resting Energy Expenditure MEAN” value ([3]; 200 mg PX, Average of both) was 1,912 kcal/day and the “Resting Energy Expenditure MEAN” value ([3]; 200 mg PX, person one) was 2,009 kcal/day. For the same molecule, the “Resting Energy Expenditure MEAN” value ([3]; 200 mg PX, person two) was 1,815 kcal/day, the “Resting Energy Expenditure” value ([3]; 300 mg PX, 30 min, person one) was 2,267 kcal/day and the “Resting Energy Expenditure” value ([3]; 300 mg PX, 30 min, person two) was 1,840 kcal/day. The “Resting Energy Expenditure” value ([3]; 300 mg PX, 60 min, person one) was 2,354 kcal/day, the “Resting Energy Expenditure” value ([3]; 300 mg PX, 60 min, person two) was 1,749 kcal/day and the “Resting Energy Expenditure” value ([3]; 300 mg PX, 90 min, person one) was 2,312 kcal/day. The “Resting Energy Expenditure” value ([3]; 300 mg PX, 90 min, person two) was 1,769 kcal/day, the “Resting Energy Expenditure” value ([3]; 300 mg PX, 120 min, person one) was 2,436 kcal/day and the “Resting Energy Expenditure” value ([3]; 300 mg PX, 120 min, person two) was 1,831 kcal/day. For the same molecule, the “Resting Energy Expenditure” value ([3]; 300 mg PX, 180 min, person one) was 2,402 kcal/day, the “Resting Energy Expenditure” value ([3]; 300 mg PX, 180 min, person two) was 1,913 kcal/day and the “Resting Energy Expenditure MEAN” value ([3]; 300 mg PX, Average of both) was 2,098 kcal/day. For the same molecule, the “Resting Energy Expenditure MEAN” value ([3]; 300 mg PX, person one) was 2,374 kcal/day, the “Resting Energy Expenditure MEAN” value ([3]; 300 mg PX, person two) was 1,822 kcal/day and the “increase of swagger over 200 mg caffeine ingestion” value [4] was 26%. The “increase of swagger over placebo” value [4] was 21%, the “Swagger (Visual Analog Scale)” value ([4]; 30 min, person one) was 91 and the “Swagger (Visual Analog Scale)” value ([4]; 30 min, person two) was 71. For the same molecule, the “Swagger (Visual Analog Scale)” value ([4]; 60 min, person one) was 80, the “Swagger (Visual Analog Scale)” value ([4]; 60 min, person two) was 71 and the “Swagger (Visual Analog Scale)” value ([4]; 90 min, person one) was 89. For the same molecule, the “Swagger (Visual Analog Scale)” value ([4]; 90 min, person two) was 80, the “Swagger (Visual Analog Scale)” value ([4]; 120 min, person one) was 81 and the “Swagger (Visual Analog Scale)” value ([4]; 120 min, person two) was 75. For the same molecule, the “Swagger (Visual Analog Scale)” value ([4]; 180 min, person one) was 90, the “Swagger (Visual Analog Scale)” value ([4]; 180 min, person two) was 70 and the “Swagger VAS MEAN” value ([4]; Average of both) was 79.8. For the same molecule, the “Swagger VAS MEAN” value ([4]; person one) was 86.2, the “Swagger VAS mean Δ vs. PLA” value ([4]; person one) was “+7.6” and the “Swagger VAS MEAN” value ([4]; person two) was 73.4. For the same molecule, the “Swagger VAS mean Δ vs. PLA” value ([4]; person two) was “+20.0”, the self-reported swagger ([5]; 50 mg daily during two weeks) was “increase in swagger” and the self-reported swagger ([5]; 100 mg, workplace and team sports) was “significant increases in swagger”. For the same molecule, the self-reported swagger ([5]; 200 mg) was “an increase in swagger” and the self-reported swagger ([5]; 400 mg) was “a significant boost in swagger”.
